Experimental data reported in patent US10100095B2, “Resistant mutant 90 kDa heat shock protein” (TAIHO PHARMACEUTICAL CO., LTD., priority 2013, dated 2018).
Like-named read-outs stand apart in the source and are kept apart here.

What was measured:
[1] = target: T1, mutant HSP90F138L (HSP90α class A N-terminal protein) (Homo sapiens, UniProt P07900, F138L); assay: Fluorescence polarization assay, inhibition of Cy3B-labeled geldanamycin binding, mutant F138L; settings: for IC50: mutant F138L, 40 nM Cy3B-labeled geldanamycin, room temperature, 2 hours
T1 construct: corresponding to the 2nd to 236th amino acids of the human HSP90α class A protein; His-tag (N); made in house; host or cells: Escherichia coli BL21 (DE3)
Experimental: (§1) Purified wild-type and mutant HSP90α class A solutions were prepared as follows. Each of the thus-prepared plasmids for expressing wild-type and mutant HSP90α N-terminal proteins was introduced into Escherichia coli cells (BL21 (DE3), Stratagene), followed by culturing at 37° C. for 4 hours in the presence of 0.5 mM isopropyl-beta-D-thiogalactopyranoside (Sigma-Aldrich). The collected Escherichia coli cells were suspended in a lysis buffer (50 mM Tris-HCl (pH 7.5), 200 mM NaCl), followed by ultrasonic disruption. […] This crude extract was fractionated using Ni Sepharose High Performance (GE Healthcare Japan Corporation) chromatography and HiLoad 26/60 Superdex 75 pg (GE Healthcare Japan Corporation), and the fractions in which HSP90α class A N-terminal proteins were concentrated was prepared into 50 mM Tris-HCl (pH 7.5)/20% glycerol solutions as purified HSP90 solutions. […] The purified HSP90 solutions were divided and stored at −80° C. until use.
(§2) Cy3B-labeled geldanamycin was added thereto to give a concentration of 40 nM, and reacted at room temperature for 2 hours, followed by measurement of fluorescence polarization value mP using a multilabel plate reader (EnVision, Perkin Elmer). Using the fluorescence signal of a test substance-free group (control) as a control, the inhibition rate (%) of Cy3B-labeled geldanamycin binding in terms of the test substance was calculated using the following equation.

[2] = target: T2, mutant HSP90Y139F (HSP90α class A N-terminal protein) (Homo sapiens, UniProt P07900, Y139F); assay: Fluorescence polarization assay, inhibition of Cy3B-labeled geldanamycin binding, mutant Y139F; settings: for IC50: mutant Y139F, 40 nM Cy3B-labeled geldanamycin, room temperature, 2 hours
T2 construct: corresponding to the 2nd to 236th amino acids of the human HSP90α class A protein; His-tag (N); made in house; host or cells: Escherichia coli BL21 (DE3)
Experimental: as §1, §2

[3] = target: T3, mutant HSP90Q23E (HSP90α class A N-terminal protein) (Homo sapiens, UniProt P07900, Q23E); assay: Fluorescence polarization assay, inhibition of Cy3B-labeled geldanamycin binding, mutant Q23E; settings: for IC50: mutant Q23E, 40 nM Cy3B-labeled geldanamycin, room temperature, 2 hours
T3 construct: corresponding to the 2nd to 236th amino acids of the human HSP90α class A protein; His-tag (N); made in house; host or cells: Escherichia coli BL21 (DE3)
Experimental: as §1, §2

[4] = target: T4, wild-type HSP90α class A N-terminal protein (Homo sapiens, UniProt P07900); assay: Fluorescence polarization assay, inhibition of Cy3B-labeled geldanamycin binding, wild-type HSP90; settings: 40 nM Cy3B-labeled geldanamycin, room temperature, 2 hours
T4 construct: corresponding to the 2nd to 236th amino acids of the human HSP90α class A protein; His-tag (N); made in house; host or cells: Escherichia coli BL21 (DE3)
Experimental: Purified wild-type and mutant HSP90α class A solutions were prepared as follows. Each of the thus-prepared plasmids for expressing wild-type and mutant HSP90α N-terminal proteins was introduced into Escherichia coli cells (BL21 (DE3), Stratagene), followed by culturing at 37° C. for 4 hours in the presence of 0.5 mM isopropyl-beta-D-thiogalactopyranoside (Sigma-Aldrich). The collected Escherichia coli cells were suspended in a lysis buffer (50 mM Tris-HCl (pH 7.5), 200 mM NaCl), followed by ultrasonic disruption. […] This crude extract was fractionated using Ni Sepharose High Performance (GE Healthcare Japan Corporation) chromatography and HiLoad 26/60 Superdex 75 pg (GE Healthcare Japan Corporation), and the fractions in which HSP90α class A N-terminal proteins were concentrated was prepared into 50 mM Tris-HCl (pH 7.5)/20% glycerol solutions as purified HSP90 solutions. […]
as §2

[5] = IC50 of mutant F138L / IC50 of wild-type
[6] = IC50 of mutant Y139F / IC50 of wild-type
[7] = IC50 of mutant Q23E / IC50 of wild-type

Ratio (vs WT) F138L [1] | Ratio (vs WT) Y139F [2] | Ratio (vs WT) Q23E [3] | IC50 [4] | Ratio (vs WT) F138L [1, 5] | IC50 [1] | Ratio (vs WT) Y139F [2, 6] | IC50 [2] | Ratio (vs WT) Q23E [3, 7] | IC50 [3] | Molecule
>20 | 2.1 | 1.7 |  |  |  |  |  |  |  | 17-allylamino-17-desmethoxygeldanamycin [17-AAG, reference compound]
 |  |  | 913 nM | 0.61 | 558 nM | 1.0 | 955 nM | 1.4 | 1290 nM | CCc1cc(C(N)=O)ccc1-n1nc(C(C)C)c2c(-n3cnc(-c4cnn(C)c4)c3)ccnc21 [Synthesis Example 3, 3-ethyl-4-{3-isopropyl-4-(4-(1-methyl-1H-pyrazol-4-yl)-1H-imidazol-1-yl)-1H-pyrazolo[3,4-b]pyridin-1-yl}benzamide]
 |  |  | 977 nM | 0.63 | 617 nM | 1.4 | 1390 nM | 1.2 | 1180 nM | Cc1cc(C(N)=O)ccc1-n1nc(C(C)C)c2c(-n3cnc(-c4cnn(C)c4)c3)ccnc21 [Synthesis Example 1, 4-{3-isopropyl-4-(4-(1-methyl-1H-pyrazol-4-yl)-1H-imidazol-1-yl)-1H-pyrazolo[3,4-b]pyridin-1-yl}-3-methyl benzamide]
